Paper PMC9901219 (European Journal of Medicinal Chemistry, 2023)

Test system: F1G cells

Compound: Cc1cccc2nc(CSC(=S)NCc3cccnc3)cn12 [Compound 1, (5-methylimidazo[1,2-a]pyridin-2-yl)methyl (pyridin-3-ylmethyl)carbamodithioate]
- cytotoxicity: without cytoxicity at the active doses
